Measurements as given in patent publication US20160298082A1, “METHOD FOR OBTAINING IMMUNO-STIMULATORY DENDRITIC CELLS” (TRANSIMMUNE AG, priority 2013, published 2016).
“Also recorded” adds a separate entry of the source.

Assays:
[1] = test system: monocytes; assay: Static co-culture of monocytes with platelets; format: cell-based, human; details: platelets activated with thrombin; no flow; 18 hours
Description: Experiments involving co-cultures of monocytes with additional platelets were performed as described in the Overnight Culture section, with a few necessary modifications. Following Ficoll-Hypaque separation, mononuclear cells were resuspended in 30% AB serum/RMPI to a final concentration of 10×10^6 cells/ml, of which 1 ml was allocated to each well of a 16-well plate. An additional 1 ml of platelets (suspended in RPMI, at 2× the desired final concentration) or RPMI without platelets was then added to each well. To activate platelets, 500 μl containing 2 units of thrombin was added to half the wells, and 500 μl of RPMI was added to the others to balance the volume. Cells were then incubated as described previously.

[2] = test system: P-selectin; assay: Surface expression of P-selectin on platelets (platelet activation); format: cell-based, human; details: platelets activated with thrombin (positive control)
Excerpt: Monoclonal antibodies for immunophenotyping included CD14 (LPS receptor; monocytes), CD11c (integrin subunit; monocytes and DC), HLA-DR (class II MHC molecule), CD83 (DC marker), CD62p (P-selectin; activated platelets), and CD61 (integrin subunit; platelets). Antibodies were obtained from Beckman Coulter (CD14, CD11c, HLADR, CD83) or Sigma (CD62p, CD61) and used at their pre-determined optimal dilutions. Background staining was established with appropriate isotype controls, and immunofluorescence was analyzed using a FC500 flow cytometer (Beckman Coulter). Two-color membrane staining was performed by adding the pre-determined optimal concentrations of both antibodies directly conjugated to FITC or PE and incubating for 20 min at 4° C., followed by washing to remove unbound antibodies. Combined membrane and cytoplasmic staining was performed following manufacturer's instructions for cell fixation and permeabilization (Intraprep kit, Beckman Coulter).
Upon encountering stimuli such as damaged endothelium or thrombin, platelets become activated and almost instantaneously translocate these intracellular proteins to the plasma membrane (Kaplan et al., 1979, see references). […] To test this hypothesis, surface expression of P-selectin, a well-known marker of platelet activation, was assessed before and after adhesion. […]

thrombin was tested, and the “DC differentiation of monocytes under static conditions” value [1] was “neither activated nor non-activated platelets were capable of inducting DC differentiation; also recorded: did not cause a discernible difference”, the “P-selectin mean fluorescence intensity (MFI)” value [2] was 108.3±23 and the “Platelets P-selectin positive” value [2] was 71±18%.
